Values of other authors as cited in patent US4867987A, “Pharmaceutical product for the sustained release of ibuprofen” (priority 1986, dated 1989).

CC(C)Cc1ccc(C(C)C(=O)O)cc1 (stereo not shown) [ibuprofen, 2-(4-isobutylphenyl)propionic acid]
complete elimination of ibuprofen and its metabolites after the last administration: ≤ 24 h
